Like-named read-outs stand apart in the source and are kept apart here.
Legend:
Assay type in all cases: cell-based
hSERT [1] = biological target: T1, hSERT (Homo sapiens, UniProt P31645); settings: superfusion
T1 construct: expressed in transfected cells
Experimental: A day prior to the experiment, HEK293 cells stably expressing hSERT or rat SERT (rSERT) were seeded at a density of 100,000 cells per channel into 6 channel flow ibidi slides (Gräfelfing, Germany). On the day of the experiments, cells were preloaded with 0.1 μM [^3H]5-HT at 37 °C, 5% CO2 for 20 min. Subsequently, the slides were transferred to the superfusion apparatus ([59]). Cells were then washed with KHB for 15 min under a constant flow of 0.5 ml/min. Fractions were collected every 2 min in 8 ml vials containing 2 ml scintillation cocktail. Collection began with three baseline fractions using KHB, followed by four additional basal release fractions with KHB, either with or without 10 μM monensin. […] To assess residual radioactivity within the cells, they were lysed with 1% sodium dodecyl sulfate (SDS), and three final fractions were obtained. The measured tritiated substrate in each fraction was expressed as a percentage of the initial tritiated substrate present at the start of that fraction.
(§1) Half-maximal inhibitory concentrations (IC50) were obtained from fitting a sigmoidal dose–response ( Y=Bottom+Top−Bottom/1+10^((LogIC50−X)·HillSlope) ) in GraphPad Prism 10.3.1 (GraphPad Software Inc.). Uptake inhibition data were evaluated by one-way ANOVA followed by Tukey's multiple comparisons test. Release data were analyzed using a two-way ANOVA (batch release) or a mixed-effects model with Geisser-Greenhouse correction (time-dependent traces) employing Šidák correction for comparing differences between compounds with or without the addition of monensin.

hSERT [2] = biological target: T1, hSERT; test: Uptake inhibition assay ([3H]5-HT) in transfected HEK293 cells
Experimental: HEK293 cells stably expressing human monoamine transporters hSERT, hDAT or hNET were seeded into poly-D-lysine (PDL) coated 96-well plates with a density of approximately 36,000 cells per well 1 day prior to experiments. A day after seeding, the cell medium was replaced with 200 μl Krebs-HEPES-buffer (KHB; 120 mM NaCl, 3 mM KCl, 2 mM CaCl2·2H2O, 2 mM MgCl2·6H2O, 20 mM D-glucose, pH = 7.3). The test drugs were initially dissolved in Milli-Q H2O or dimethyl sulfoxide (DMSO) at a concentration of 10 to 100 mM. Then, cells were treated with the respective concentration of the test drug diluted in KHB for 5 min as a pre-incubation step. Subsequently, in the uptake step, the solution was replaced with 50 μl/well diluted drug solution and tritiated substrate (hDAT: 0.1 μM [^3H]DA; hNET: 0.02 μM [^3H]MPP^+; hSERT: 0.1 μM [^3H]5-HT) for 1 min (hDAT, hSERT) or 3 min (hNET). After incubation, cells were immediately washed with 200 μl KHB to stop uptake. Uptake was indirectly measured by quantifying beta emission with liquid scintillation counting (Wallac 1450 MicroBeta TriLux Liquid Scintillation Counter & Lumi; GMI). Therefore, 200 μl Ultima Gold XR scintillation cocktail (PerkinElmer, MA, USA) was added to each well.
as §1

hDAT = biological target: T2, hDAT (Homo sapiens, UniProt Q01959); test: Batch release assay ([3H]MPP+) in transfected HEK293 cells; settings: % efflux of total uptake, compounds approximately at IC50 concentration
T2 construct: expressed in transfected cells
Experimental: (§2) Batch release assays were performed as described previously ([44]). In brief, HEK293 cells stably expressing monoamine transporters were seeded similar to the procedure used for uptake inhibition assays. A day after seeding cells were pre-loaded with 50 μl/well 0.015 μM [^3H]MPP^+ (hDAT, hNET), or 0.08 μM [^3H]5-HT (hSERT) for 20 min at 37 °C. Then cells were washed four times for 3 to 4 min each and further incubated with KHB or KHB + monensin. After 10 min of incubation, two (screening) to four (full traces; hSERT) 2 min incubations were performed to establish a baseline release without substance. […] Each fraction was transferred to an empty well in the 96-well plate. For screening, a known inhibitor (hDAT, hNET: 50 μM GBR12909) and releaser (hDAT, hNET: 10 μM S-(+)-amphetamine) were used as controls. Ultima Gold XR scintillation cocktail was added to the remaining cells, and each well contained a release fraction. The counted radioactivity in the respective fraction was expressed as a percentage of total radioactivity at the start of the fraction.
as §1

hNET = biological target: T3, hNET (Homo sapiens, UniProt P23975); test: as above; settings: % efflux of total uptake, compounds approximately at IC50 concentration
T3 construct: expressed in transfected cells
Experimental: as §2, §1

hSERT [3] = biological target: T1, hSERT; settings: batch release, % efflux of total uptake, compounds approximately at IC50 concentration
Experimental: as §2, §1

T1 sequence (P31645 whole entry, the tested form may be a part): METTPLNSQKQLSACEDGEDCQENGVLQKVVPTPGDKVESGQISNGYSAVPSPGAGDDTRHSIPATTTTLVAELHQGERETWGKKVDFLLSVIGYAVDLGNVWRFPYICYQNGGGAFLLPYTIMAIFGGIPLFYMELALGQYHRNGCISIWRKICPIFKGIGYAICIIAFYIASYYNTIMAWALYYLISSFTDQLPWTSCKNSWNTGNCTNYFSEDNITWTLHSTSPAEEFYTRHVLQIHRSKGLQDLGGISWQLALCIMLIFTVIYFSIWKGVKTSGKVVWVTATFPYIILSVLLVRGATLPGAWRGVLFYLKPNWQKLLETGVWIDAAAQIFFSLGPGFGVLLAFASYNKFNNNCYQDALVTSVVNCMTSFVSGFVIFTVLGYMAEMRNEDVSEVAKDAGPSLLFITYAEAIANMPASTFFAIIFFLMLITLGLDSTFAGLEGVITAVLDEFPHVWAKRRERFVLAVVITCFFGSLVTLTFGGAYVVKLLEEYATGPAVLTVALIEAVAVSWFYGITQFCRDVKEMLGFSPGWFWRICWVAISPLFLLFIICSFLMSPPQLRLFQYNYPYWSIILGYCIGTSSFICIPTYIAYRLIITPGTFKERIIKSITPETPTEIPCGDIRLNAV
T2 sequence (Q01959 whole entry): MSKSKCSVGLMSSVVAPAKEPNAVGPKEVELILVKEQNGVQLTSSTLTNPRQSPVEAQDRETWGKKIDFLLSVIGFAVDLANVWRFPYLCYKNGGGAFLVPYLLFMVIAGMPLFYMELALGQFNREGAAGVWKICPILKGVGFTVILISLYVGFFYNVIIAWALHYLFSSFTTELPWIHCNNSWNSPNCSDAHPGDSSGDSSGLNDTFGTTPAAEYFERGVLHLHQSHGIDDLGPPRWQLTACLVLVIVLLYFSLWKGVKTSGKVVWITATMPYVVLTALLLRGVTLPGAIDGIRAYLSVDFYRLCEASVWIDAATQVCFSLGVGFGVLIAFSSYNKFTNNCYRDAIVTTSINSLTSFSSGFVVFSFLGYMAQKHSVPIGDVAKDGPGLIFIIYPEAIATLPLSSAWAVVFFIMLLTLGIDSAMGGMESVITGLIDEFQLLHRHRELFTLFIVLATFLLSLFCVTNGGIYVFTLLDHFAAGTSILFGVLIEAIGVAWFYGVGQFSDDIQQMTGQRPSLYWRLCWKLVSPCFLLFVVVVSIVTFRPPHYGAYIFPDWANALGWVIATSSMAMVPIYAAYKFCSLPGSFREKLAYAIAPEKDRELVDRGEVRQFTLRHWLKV
T3 sequence (P23975 whole entry): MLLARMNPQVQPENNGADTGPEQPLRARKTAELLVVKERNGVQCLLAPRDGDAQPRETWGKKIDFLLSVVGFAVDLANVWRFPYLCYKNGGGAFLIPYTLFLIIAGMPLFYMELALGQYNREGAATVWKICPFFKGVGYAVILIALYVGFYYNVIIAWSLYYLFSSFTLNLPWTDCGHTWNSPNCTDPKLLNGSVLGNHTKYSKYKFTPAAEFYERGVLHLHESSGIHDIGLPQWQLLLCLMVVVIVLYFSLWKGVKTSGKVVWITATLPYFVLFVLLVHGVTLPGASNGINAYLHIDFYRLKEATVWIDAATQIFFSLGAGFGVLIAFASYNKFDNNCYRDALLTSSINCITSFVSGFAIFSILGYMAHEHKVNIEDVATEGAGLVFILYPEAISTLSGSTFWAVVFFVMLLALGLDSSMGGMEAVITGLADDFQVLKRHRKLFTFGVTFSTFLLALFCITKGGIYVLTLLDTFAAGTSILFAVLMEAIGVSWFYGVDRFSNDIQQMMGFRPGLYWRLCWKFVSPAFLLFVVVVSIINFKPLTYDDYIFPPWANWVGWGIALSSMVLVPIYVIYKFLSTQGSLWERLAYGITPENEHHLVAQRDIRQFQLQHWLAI

Q: For `CCCC(Cc1ccccc1)N1CCCC1` (centres unmarked) [Prolintane, 1-(1-phenylpentan-2-yl)pyrrolidine], which “hSERT efflux ± Mon, mean diff” value (hSERT [1]; Row 1 (2 min fraction 1, baseline KHB)) is on record?
A: The value was 0.02682.

Q: What about the “hSERT efflux ± Mon, mean diff” value (hSERT [1]; Row 2 (2 min fraction 2, baseline KHB)) of the same molecule?
A: The value was 0.1025.

Q: What about the “hSERT efflux ± Mon, mean diff” value (hSERT [1]; Row 3 (2 min fraction 3, baseline KHB)) of the same molecule?
A: Its value is 0.1806.

Q: What about the “hSERT efflux ± Mon, mean diff” value (hSERT [1]; Row 4 (fraction 4, KHB with or without 10 μM monensin)) of the same molecule?
A: The value was 0.1203.

Q: What about the “hSERT efflux ± Mon, mean diff” value (hSERT [1]; Row 5 (fraction 5, KHB with or without 10 μM monensin)) of the same molecule?
A: The value was 0.07151.

Q: And the “hSERT efflux ± Mon, mean diff” value (hSERT [1]; Row 6 (fraction 6, KHB with or without 10 μM monensin))?
A: The value was -0.1392.

Q: And the “hSERT efflux ± Mon, mean diff” value (hSERT [1]; Row 7 (fraction 7, KHB with or without 10 μM monensin))?
A: Its value is -0.1744.

Q: What about the “hSERT efflux ± Mon, mean diff” value (hSERT [1]; Row 8 (fraction 8, compound at IC50 concentration)) of the same molecule?
A: The value was -5.479.

Q: What about the “hSERT efflux ± Mon, mean diff” value (hSERT [1]; Row 9 (fraction 9, compound at IC50 concentration)) of the same molecule?
A: Its value is -6.902.

Q: And the “hSERT efflux ± Mon, mean diff” value (hSERT [1]; Row 10 (fraction 10, compound at IC50 concentration))?
A: The value was -6.703.

Q: And the “hSERT efflux ± Mon, mean diff” value (hSERT [1]; Row 11 (fraction 11, compound at IC50 concentration))?
A: The value was -6.503.

Q: What about the “hSERT efflux ± Mon, mean diff” value (hSERT [1]; Row 12 (fraction 12, compound at IC50 concentration)) of the same molecule?
A: Its value is -6.083.

Q: And the IC50 (hSERT [2])?
A: Its IC50 is 28.6 ± 4.01 µM.

Q: And the “IC50 at hSERT, fold weaker than at hDAT and hNET” value (hSERT [2]; HEK293 cells)?
A: The value was “more than 500 fold”.

Q: What about the “hDAT-mediated efflux, predicted (LS) mean diff, No mon - Mon” value (hDAT) of the same molecule?
A: The value was 0.1383.

Q: What about the “hNET-mediated efflux, predicted (LS) mean diff, No mon - Mon” value (hNET) of the same molecule?
A: The value was -0.3446.

Q: And the “hSERT-mediated efflux, predicted (LS) mean diff, No mon - Mon” value (hSERT [3])?
A: Its value is -7.218.

From paper PMC12720098, “Prolintane analogs as hybrid monoamine transporter ligands: Structural determinants and species differences” (The Journal of Biological Chemistry, 2025)
